Laboratory results as given in the NIST ThermoML archive (doi:10.1021/je400207t).
“And” between values parts separate entries of the source, which are not always exact repeats. Equal values may be shown once. ± gives the expanded uncertainty stated by the source.

How the values were obtained:
[1] = Molar enthalpy of transition or fusion; conditions: DSC
[2] = for vapor or sublimation pressure: Calculated from knudsen effusion weight loss

O[C@@H]1[C@@H](O)[C@@H]2OC[C@@H](O2)[C@H]1O [1,6-anhydro-β-D-glucopyranose]
Conditions | Molar enthalpy of transition or fusion, Crystal 1 [kcal/mol] | Molar enthalpy of transition or fusion, Crystal 2 [kcal/mol] | Normal melting temperature, Crystal 1, DTA [°C] | Triple point temperature, Crystal 2, DTA [K]
[1] | 0.789 ± 0.0956 | 5.54 ± 0.215 | – | –
[2] | – | – | 182.2 ± 0.4 | 384.9 ± 0.7

[2], Crystal 2
Conditions | vapor or sublimation pressure
361.13 K | 5.35e-05 ± 1e-05 kPa and 6.29e-05 ± 1e-05 kPa and 5.88e-05 ± 1e-05 kPa
363.14 K | 7.32e-05 ± 1e-05 kPa and 7.78e-05 ± 1e-05 kPa
365.22 K | 0.000102 ± 1.1e-05 kPa and 0.000101 ± 1.1e-05 kPa and 9.67e-05 ± 1.1e-05 kPa
367.16 K | 0.00012 ± 1.1e-05 kPa and 0.000119 ± 1.1e-05 kPa and 0.000113 ± 1.1e-05 kPa
369.14 K | 0.000164 ± 1.2e-05 kPa and 0.000144 ± 1.1e-05 kPa and 0.000152 ± 1.1e-05 kPa
371.15 K | 0.000183 ± 1.2e-05 kPa and 0.000192 ± 1.2e-05 kPa
373.15 K | 0.000247 ± 1.3e-05 kPa and 0.000231 ± 1.3e-05 kPa
375.13 K | 0.000317 ± 1.5e-05 kPa and 0.00028 ± 1.4e-05 kPa and 0.000289 ± 1.4e-05 kPa
377.22 K | 0.000407 ± 1.8e-05 kPa and 0.000368 ± 1.6e-05 kPa and 0.000396 ± 1.7e-05 kPa
379.15 K | 0.000476 ± 2e-05 kPa and 0.000472 ± 1.9e-05 kPa and 0.000458 ± 1.9e-05 kPa
